Experimental data published in article PMC1810525, “Antagonism of the prostaglandin D2 receptor CRTH2 attenuates asthma pathology in mouse eosinophilic airway inflammation” (Respiratory Research, 2007).

Tests used:
mCRTH2 = target: T1, mCRTH2 (Mus musculus, UniProt Q9Z2J6); assay: Inositol phosphate accumulation assay, mCRTH2-HEK cells (Schild analysis vs PGD2); type: cell-based; conditions: PGD2 concentration-response, InsP
T1 construct: expressed in transfected cells
T1 sequence (Q9Z2J6 1-382): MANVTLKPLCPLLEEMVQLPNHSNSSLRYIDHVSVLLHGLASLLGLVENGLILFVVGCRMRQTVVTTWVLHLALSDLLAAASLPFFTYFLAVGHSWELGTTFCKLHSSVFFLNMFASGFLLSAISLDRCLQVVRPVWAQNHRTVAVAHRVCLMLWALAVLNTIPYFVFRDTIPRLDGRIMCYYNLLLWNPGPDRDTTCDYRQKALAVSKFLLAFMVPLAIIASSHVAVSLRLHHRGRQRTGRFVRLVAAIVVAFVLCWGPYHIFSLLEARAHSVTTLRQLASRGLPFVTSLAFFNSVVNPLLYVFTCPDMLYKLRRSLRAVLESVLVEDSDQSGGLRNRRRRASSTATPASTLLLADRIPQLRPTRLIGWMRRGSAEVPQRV
Text: (§1) The coding sequence of mCRTH2 (genbank accession no. AF054507) was amplified by PCR from mouse hippocampus cDNA and inserted into the pcDNA3.1(+) expression vector (invitrogen). A HEK293 cell line, stably expressing mCRTH2 (hereafter referred to as mCRTH2-HEK cells) was generated under G418 (Gibco #11811) selection and used as described below in whole cell binding and functional inositol phosphate accumulation assays. The coding sequence of mTP (genbank accession no. D10849) was amplified by PCR from mouse spleen cDNA and inserted into pcDNA3.1(+). HEK293 cells were transiently transfected with mTP as described and assayed after 48 hr as outlined below.
(§2) mCRTH2-HEK or HEK cells transiently transfected with mTP were seeded at a density of 30.000 cells/well in poly-D-lysine coated 96-well tissue culture plates and labeled by overnight incubation in medium containing 5 μCi myo- [2-^3H]-inositol (TRK911, Amersham Biosciences). After washing, cells were stimulated with the respective ligands in the presence of 5 mM LiCl (HBSS, GIBCO cat. 14025–050, 45 min, 37°C) and the inositol phosphate fraction was quantified using a scintillation proximity assay (SPA) as described previously. To facilitate inositol phosphate generation by the Gi-selective CRTH2 receptor, mCRTH2-HEK cells were transiently transfected with a promiscuous Gα protein [29].
(§3) was performed using the Prism 3.0 software (GraphPad Software, San Diego) as described previously with the following exceptions: Binding data from competition binding assays were normalized to percent of specific binding of [^3H]PGD2 or [^3H]SQ29548 and the Ki was then determined using the Cheng-Prusoff equation Ki = IC50/(1+L/Kd), where L is the concentration of radioactive ligand and Kd is its dissociation constant. For Schild analysis, global fitting using the Gaddum/Schild competitive interaction model was applied after the functional concentration-response curves for the agonists PGD2 or U46619 in the absence or presence of various antagonist concentrations were normalized to percent of the maximal response obtained by agonist alone.

mTP = target: T2, mTP (Mus musculus, UniProt P30987); assay: Inositol phosphate accumulation assay, HEK cells transfected with mTP (Schild analysis vs U46619); type: cell-based
T2 construct: expressed in transfected cells; host or cells: HEK293 (transient, pcDNA3.1(+))
T2 sequence (P30987 1-341): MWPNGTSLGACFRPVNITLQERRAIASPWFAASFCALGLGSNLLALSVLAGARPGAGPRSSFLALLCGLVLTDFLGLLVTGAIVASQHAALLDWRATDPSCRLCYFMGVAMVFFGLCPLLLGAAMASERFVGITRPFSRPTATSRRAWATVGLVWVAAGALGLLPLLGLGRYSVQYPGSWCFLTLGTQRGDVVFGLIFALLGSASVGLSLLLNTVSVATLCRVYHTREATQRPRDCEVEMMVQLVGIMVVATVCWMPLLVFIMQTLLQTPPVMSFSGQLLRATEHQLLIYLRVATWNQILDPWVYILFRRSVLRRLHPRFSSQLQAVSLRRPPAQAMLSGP
Text: as §1, §2, §3

[1] = test system: OVA-challenged BALB/c mice; assay: Mouse model of allergic asthma (OVA), bronchoalveolar lavage eosinophils; type: in vivo; conditions: 5 mg/kg orally twice daily, 24 hr after second challenge, allergen/vehicle 1.0 ± 0.2 %
Text: Female BALB/c mice about 6 weeks of age (MoB A/S; Ry, Denmark) were kept in well-controlled animal housing facilities and fed ad libitum. The study was approved by the Regional Ethics Committee in Malmoe-Lund, Sweden. […] Sigma) at day 0 as described previously. […] Control animals received saline challenge. Animals were sacrificed 24 hr after the last allergen challenge by pentobarbital i.p followed by bronchoalveolar lavage (BAL) and lung tissue sampling. In preliminary studies it was ascertained that daily allergen challenges for only a few days sufficed to produce a significant airway tissue eosinophilia as well as goblet cell hyperplasia. On days 14 and 15 mice were treated twice daily with TM30089 and ramatroban (BAY3405), 5 mg/kg orally. […] Drugs were administered 30 minutes before and 4 hr after each challenge. The dose of ramatroban was selected in accord with previous reports. […] The total number of cells was quantified using a […] (NucleoCounter®, Chemometec A/S, Allerod, Denmark) and 5 × 10^5 cells cytocentrifuged to microscope slides. Differential cell counts were performed on May-Grünwald Giemsa stained slides and percentage of eosinophils, lymphocytes, neutrophils, and macrophages determined by counting 200–300 cells in a blinded manner. […]

SMILES	Schild slope mCRTH2 (mCRTH2)	pA2 mCRTH2 (mCRTH2)	effect on signaling of mTP (mTP; InsP functional assay)	BALF eosinophils [1]	Kb (mCRTH2; read-out: pA2 mCRTH2 (converted))	Schild slope mTP (mTP; Schild analysis, U46619 concentration-response, InsP)	Kb (mTP; Schild analysis, U46619 concentration-response, InsP, read-out: pA2 mTP (converted))
CN(C1CCc2c(c3ccccc3n2CC(=O)O)C1)S(=O)(=O)c1ccc(F)cc1 (stereo not drawn) [TM30089]	1.45 ± 0.08	9.15 ± 0.11	does not interfere with signaling of mTP	0.5 ± 0.01%	–	–	–
O=C(O)CCn1c2c(c3ccccc31)C[C@H](NS(=O)(=O)c1ccc(F)cc1)CC2 [ramatroban, reference compound]	0.94 ± 0.05	–	–	0.4 ± 0.01%	8.32 nM	1.35 ± 0.06	0.437 nM
